What was measured:
[1] = test system: mCherry-expressing M. bovis BCG; type: cell-based
ER/neutral Ca^2+ store = assay: Cytosolic Ca^2+ / ER Ca^2+ store content probed with ionomycin; type: cell-based
[2] = cited from earlier work; for neurological side effects: adult mice, Andersson et al. 2004; for CNS penetration: mouse, in vivo
GSL biosynthesis = conditions: cited from earlier work
[3] = test system: total ganglioside and GM1 content; conditions: Kasperzyk et al. 2005; cited from earlier work
[4] = mouse models of GSL storage diseases; cited from earlier work
M. smegmatis [5] = assay: Clearance of M. smegmatis in RAW 246.7 cells; type: cell-based, Mycobacterium smegmatis; conditions: RAW 246.7 cells incubated with U18666A (1 μg/ml, 48 hours) prior to infection; relative to untreated cells; FIG. 12
M. smegmatis [6] = assay: Clearance of M. smegmatis in wild-type mouse macrophages; type: cell-based, Mycobacterium smegmatis; conditions: U18666A-treated wild-type mouse macrophages; FIG. 13
M. smegmatis [7] = assay: Clearance of M. smegmatis in primary human macrophages; type: cell-based, Mycobacterium smegmatis; conditions: primary human macrophages treated with U18666A; FIG. 14
[8] = test system: sarco-endoplasmic reticulum Ca^2+-ATPase (SERCA); conditions: Bilmen et al. 2001; cited from earlier work
BCG = type: cell-based, M. bovis BCG
GSL levels = conditions: mice; Platt 1997; cited from earlier work
[9] = test system: lysosomal expansion/storage; assay: Lysotracker fluorescence (lysosomal expansion/storage); type: cell-based; conditions: FIG. 6B
Experimental: Cells were live stained with 50 nM Lysotracker green (Molecular Probes) in PBS at room temperature for 30 min prior to washing.

LE/Lys Ca^2+ = type: cell-based
NPC phenotypes = type: cell-based
GSL = type: cell-based
NPC1 = assay: TDM on bone marrow-derived macrophages from NPC1 heterozygous mice; type: cell-based, mouse

For OC[C@H]1O[C@@H]2O[C@H]3[C@H](O)[C@@H](O)[C@@H](O[C@H]4[C@H](O)[C@@H](O)[C@@H](O[C@H]5[C@H](O)[C@@H](O)[C@@H](O[C@H]6[C@H](O)[C@@H](O)[C@@H](O[C@H]7[C@H](O)[C@@H](O)[C@@H](O[C@H]8[C@H](O)[C@@H](O)[C@@H](O[C@H]1[C@H](O)[C@H]2O)O[C@@H]8CO)O[C@@H]7CO)O[C@@H]6CO)O[C@@H]5CO)O[C@@H]4CO)O[C@@H]3CO [3-cyclodextrin, β-cyclodextrin], the “mycobacterial clearance, agent alone” value [1] was “neither of these molecules alone promoted mycobacterial clearance”.

With COc1ccc(/C=C/C(=O)C(C)(C)C(=O)/C=C/c2ccc(OC)c(OC)c2)cc1OC [FLLL31] the “effect on cytosolic Ca^2+ levels” value (ER/neutral Ca^2+ store) was “has no effect on cytosolic Ca^2+ levels” and the BCG clearance [1] was “had no effect”.

For CCCCN1C[C@H](O)[C@@H](O)[C@@H](O)[C@H]1CO [NB-DGJ, N-butyldeoxygalactonojirimycin], the neurological side effects [2] is given as “not to cause neurological side effects”, the CNS penetration [2] is given as “penetrate the CNS” and the “inhibition of GSL biosynthesis relative to NB-DNJ” value (GSL biosynthesis) is given as “comparably to NB-DNJ”. The “total ganglioside and GM1 content in cerebrum-brainstem” value [3] was “marked reduction” and the tolerability [4] was “very well tolerated”.

In the case of CCN(CC)CCO[C@H]1CC[C@@]2(C)C(=CC[C@@H]3[C@@H]2CC[C@]2(C)C(=O)CC[C@@H]32)C1 [U18666A], the “ability to clear non-pathogenic M. smegmatis” value (M. smegmatis [5]) is reported as “impaired ability to clear non-pathogenic M. smegmatis”, the “clearance of M. smegmatis” value (M. smegmatis [6]) is reported as “Impaired clearance of M. smegmatis” and the “clearance of M. smegmatis” value (M. smegmatis [7]) is reported as “Impaired clearance of M. smegmatis”.

For COc1cc(/C=C/C(=O)CC(=O)/C=C/c2ccc(O)c(OC)c2)ccc1O [curcumin], the “Ca^2+ uptake by SERCA” value [8] is listed as “inhibits Ca^2+ uptake”, the “effect on cytosolic Ca^2+ levels” value (ER/neutral Ca^2+ store) is listed as “raises cytosolic [Ca^2+ ]” and the mycobacterial burden (BCG) is listed as “significantly reduced mycobacterial burden”. For the same compound, the BCG clearance [1] was “promoted BCG clearance”, the “bacterial clearance in cells loaded with the Ca^2+ chelator BAPTA” value [1] was “abrogated” and the “level of infection (average fluorescence intensity of mCherry-expressing BCG)” value [1] was “significantly lower level of infection”.

For CCCCN1C[C@H](O)[C@@H](O)[C@H](O)[C@H]1CO [miglustat, N-butyldeoxynojirimycin], the neurological side effects [2] is given as “not to cause neurological side effects”, the CNS penetration [2] is given as “penetrate the CNS” and the “duration of treatment after which the effect on GSL levels stabilizes” value (GSL levels) is given as 10 days. The “onset of decrease in GSL levels” value (GSL levels) was “measurable decrease in GSL levels within a day of treatment” and the “mycobacterial clearance, agent alone” value [1] was “neither of these molecules alone promoted mycobacterial clearance”.

In the case of “glucose monomycolate [GMM from non-pathogenic M. smegmatis]”, the “Lysotracker fluorescence, NPC-like lysosomal expansion/storage” value [9] is reported as “minimal effects”.

In the case of glucose monomycolate [GMM], the “Lysotracker fluorescence, NPC-like lysosomal expansion/storage” value [9] is reported as “only modest lysosomal expansion that did not reach statistical significance”.

For “trehalose dimycolate [TDM from M. bovis]”, the “LE/Lys Ca^2+ levels” value (LE/Lys Ca^2+) was “reduced LE/Lys Ca^2+ levels”, the GM1 trafficking (NPC phenotypes) was “GM1 mistrafficking” and the GSL levels (GSL) was “GSL accumulation”.

In the case of trehalose dimycolate [TDM], the “susceptibility of Npc1+/- macrophages (50% of wild-type NPC1 protein) to inhibition by TDM, versus wild-type” value (NPC1) is reported as “more susceptible to inhibition” and the “Lysotracker fluorescence, NPC-like lysosomal expansion/storage” value [9] is reported as “greatest increase in Lysotracker fluorescence”.

For trehalose monomycolate [TMM], the “Lysotracker fluorescence, NPC-like lysosomal expansion/storage” value [9] was “only modest lysosomal expansion that did not reach statistical significance”.
